Test results: article PMC4234439 (Journal of Medicinal Chemistry, 2014)
One block for each compound: values may come before it.

Assays:
[1] = plasma protein binding by ultracentrifugation; type: in vitro ADME; conditions: 37 °C
[2] = plasma exposure in Swiss mice; type: in vivo, Swiss outbred mice; conditions: oral 10 mg/kg, PEG400 suspension, comparison in words
[3] = human liver microsomal stability; type: in vitro ADME; conditions: liver microsomes, intrinsic clearance (CLint)
[4] = system: P. falciparum strain TM90-C2B (chloroquine, mefloquine, pyrimethamine, and atovaquone resistant); test: microbe, parasite or virus in culture; conditions: Plasmodium falciparum, TM90, read-out: EC50 (nM) TM90-C2B
P. berghei-GFP parasites = type: in vivo, Plasmodium berghei; conditions: for animals cured: Thompson test, 10 mg/kg, five mice per group

microsomal CLint at 1 μM [3]: < 15 µL/min/mg
SMILES: COc1cc2[nH]c(C)c(-c3ccncc3)c(=O)c2cc1Cl [Compound 21, 6-Chloro-7-methoxy-2-methyl-3-(pyridin-4-yl)quinolin-4(1H)-one]

microsomal CLint at 1 μM [3]: 19 µL/min/mg
SMILES: COc1cc2[nH]c(C)c(-c3ccc(Oc4ccccc4)cc3)c(=O)c2cc1Cl [Compound 46, 6-Chloro-7-methoxy-2-methyl-3-(4-phenoxyphenyl)quinolin-4(1H)-one]

plasma exposure [2]: substantially lower
SMILES: COc1cc2[nH]c(C)c(-c3ccc(C(F)(F)F)cc3)c(=O)c2cc1Cl [Compound 52, 6-Chloro-7-methoxy-2-methyl-3-(4-(trifluoromethyl)phenyl)quinolin-4(1H)-one]

plasma exposure [2]: slightly lower exposure
SMILES: COc1cc2[nH]c(C)c(-c3ccc(-c4ccc(C(F)(F)F)cc4F)nc3)c(=O)c2cc1Cl [Compound 66, 6-Chloro-3-(6-(2-fluoro-4-(trifluoromethyl)phenyl)pyridin-3-yl)-7-methoxy-2-methylquinolin-4(1H)-one]

Continued, compound first:

SMILES: COc1cc2[nH]c(C)c(-c3ccc(Oc4ccc(OC(F)(F)F)cc4)cc3F)c(=O)c2cc1Cl [Compound 7]
binding to plasma proteins [1]: > 99% | plasma exposure [2]: highest exposure

SMILES: COc1cc2[nH]c(C)c(-c3cccnc3)c(=O)c2cc1Cl [Compound 20, 6-Chloro-7-methoxy-2-methyl-3-(pyridin-3-yl)quinolin-4(1H)-one]
microsomal CLint at 1 μM [3]: < 15 µL/min/mg

SMILES: COc1cc2[nH]c(C)c(-c3ccc(N4CCN(C)CC4)nc3)c(=O)c2cc1Cl [Compound 24, 6-Chloro-7-methoxy-2-methyl-3-(6-(4-methylpiperazin-1-yl)pyridin-3-yl)quinolin-4(1H)-one]
EC50 [4]: ≥ 536 nM

SMILES: COc1cc2[nH]c(C)c(-c3cc4ccccc4s3)c(=O)c2cc1Cl [Compound 30, 3-(Benzo[b]thiophen-2-yl)-6-chloro-7-methoxy-2-methylquinolin-4(1H)-one]
EC50 [4]: 24.8 to 138 nM

SMILES: COc1cc2[nH]c(C)c(-c3ccc(Oc4ccc(OC(F)(F)F)cc4)cc3C)c(=O)c2cc1Cl [Compound 62, 6-Chloro-7-methoxy-2-methyl-3-(2-methyl-4-(4-(trifluoromethoxy)phenoxy)phenyl)-quinolin-4(1H)-one]
animals cured (P. berghei-GFP parasites): two out of five

SMILES: COc1cc2[nH]c(C)c(-c3ccc(-c4ccc(OC(F)(F)F)cc4)nc3)c(=O)c2cc1Cl [Compound 67, 6-Chloro-7-methoxy-2-methyl-3-(6-(4-(trifluoromethoxy)phenyl)pyridin-3-yl)quinolin-4(1H)-one]
animals cured (P. berghei-GFP parasites): cured all the mice | plasma exposure [2]: slightly lower exposure

SMILES: O=C1C(O)=C([C@H]2CC[C@H](c3ccc(Cl)cc3)CC2)C(=O)c2ccccc21 [atovaquone, reference compound]
survival (P. berghei-GFP parasites; days survived beyond untreated control, 50 mg/kg p.o. days 3–5 PE): 23 days
